Test results published in PubChem BioAssay AID328 (DTP/NCI, 2004).
Where “and” joins values, the source holds several entries; their conditions need not be identical. Equal entries are not always repeated. Toxic doses and inconclusive results are not listed.

Tested on: BDF1 mice, P388 leukemia ip, median survival T/C
Experiment: NCI In Vivo Anticancer Drug Screen. Data for tumor model P388 Leukemia (intraperitoneal) in B6D2F1 (BDF1) mice
Details: endpoint: median survival time, higher = longer survival
How it was run: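 Read-out is survival of treated animals expressed relative to the vehicle group, as a T/C ratio.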

[1] = dose: 100.0 mg/kg/injection, schedule: Q04DX003 (ip), vehicle: saline with Tween-80
[2] = dose: 200.0 mg/kg/injection, schedule: Q04DX003 (ip), vehicle: saline with Tween-80
[3] = dose: 400.0 mg/kg/injection, schedule: Q04DX003 (ip), vehicle: saline with Tween-80
[4] = dose: 1.56 mg/kg/injection, schedule: Q01DX009 (ip), vehicle: saline with Tween-80
[5] = dose: 6.25 mg/kg/injection, schedule: Q01DX009 (ip), vehicle: saline with Tween-80
[6] = dose: 12.5 mg/kg/injection, schedule: Q01DX009 (ip), vehicle: saline with Tween-80
[7] = dose: 25.0 mg/kg/injection, schedule: Q01DX009 (ip), vehicle: saline with Tween-80
[8] = dose: 50.0 mg/kg/injection, schedule: Q01DX009 (ip), vehicle: saline with Tween-80
[9] = dose: 100.0 mg/kg/injection, schedule: Q01DX009 (ip), vehicle: saline with Tween-80
[10] = dose: 200.0 mg/kg/injection, schedule: Q01DX009 (ip), vehicle: saline with Tween-80
[11] = dose: 400.0 mg/kg/injection, schedule: Q01DX009 (ip), vehicle: saline with Tween-80

Cc1ccc(C[N+](C)(C)C)c2ccccc12 was tested, and the T/C (dose: 12.5 mg/kg/injection, schedule: Q04DX003 (ip), vehicle: saline) was 107 % of control, the T/C (dose: 25.0 mg/kg/injection, schedule: Q04DX003 (ip), vehicle: saline) was 105 % of control and the T/C (dose: 50.0 mg/kg/injection, schedule: Q04DX003 (ip), vehicle: saline) was 96 % of control.

O=C(Nc1ccc(Cl)c(Cl)c1)O/N=C/c1ccccn1 was tested, and the T/C [1] was 100 % of control, the T/C [2] was 90 % of control and the T/C [3] was 95 % of control.

CC1CC[N-]CC1.CC1CC[N-]CC1.[Br][Pt+2]([Br])([Br])[Br] was tested, and the T/C [4] was 100 % of control, the T/C (dose: 3.12 mg/kg/injection, schedule: Q01DX009 (ip), vehicle: saline with Tween-80) was 94 % of control and the T/C (dose: 3.12 mg/kg/injection, schedule: Q04DX003 (ip), vehicle: saline with Tween-80) was 97 % of control. For the same compound, the T/C [5] was 107 % of control, the T/C (dose: 6.25 mg/kg/injection, schedule: Q04DX003 (ip), vehicle: saline with Tween-80) was 91 % of control and 108 % of control and the T/C (dose: 12.5 mg/kg/injection, schedule: Q04DX003 (ip), vehicle: saline with Tween-80) was 100 % of control. For the same compound, the T/C (dose: 25.0 mg/kg/injection, schedule: Q04DX003 (ip), vehicle: saline with Tween-80) was 117 % of control and the T/C (dose: 50.0 mg/kg/injection, schedule: Q04DX003 (ip), vehicle: saline with Tween-80) was 91 % of control and 121 % of control.

C=Cc1c(C)c(O)cc2c1-c1ccc(O)c(C)c1CC2 was tested, and the T/C [5] was 104 % of control, the T/C [6] was 104 % of control and the T/C [7] was 104 % of control. The T/C [8] was 100 % of control.

In the case of C[C@H]1[C@H](O)[C@H]2[C@@H](CCC3=CC(=O)CC[C@@]32C)[C@@H]2CC[C@H](O)[C@@]12C, the T/C [9] is reported as 100 % of control, the T/C [1] is reported as 91 % of control and the T/C [10] is reported as 87 % of control and 100 % of control. For the same compound, the T/C [2] was 95 % of control, the T/C [11] was 87 % of control and 118 % of control and the T/C [3] was 91 % of control.

O=C1CCSC(=O)N1SC(Cl)(Cl)Cl was tested, and the T/C (dose: 12.0 mg/kg/injection, schedule: Q01DX009 (ip), vehicle: saline with Tween-80) was 120 % of control, the T/C [7] was 110 % of control and the T/C [8] was 100 % of control.

For CP12(OC(=O)c3ccccc31)OC(=O)c1ccccc12, the T/C [8] was 91 % of control, the T/C [9] was 91 % of control and the T/C [10] was 96 % of control.

For CCOC(=O)/C=C(/C)SC1=CC(=O)c2ccccc2C1=O, the T/C [4] was 107 % of control and 113 % of control, the T/C (dose: 3.13 mg/kg/injection, schedule: Q01DX009 (ip), vehicle: saline with Tween-80) was 106 % of control and 107 % of control and the T/C [5] was 104 % of control and 117 % of control. For the same compound, the T/C [6] was 107 % of control and 115 % of control.

COc1ccc2nc(C)c(COC(C)=O)c(Cl)c2c1 was tested, and the T/C (dose: 50.0 mg/kg/injection, schedule: Q01DX009 (ip), vehicle: saline) was 104 % of control, the T/C (dose: 100.0 mg/kg/injection, schedule: Q04DX003 (ip), vehicle: saline) was 104 % of control and the T/C (dose: 200.0 mg/kg/injection, schedule: Q01DX009 (ip), vehicle: saline) was 104 % of control. The T/C (dose: 200.0 mg/kg/injection, schedule: Q04DX003 (ip), vehicle: saline) was 105 % of control, the T/C (dose: 400.0 mg/kg/injection, schedule: Q01DX009 (ip), vehicle: saline) was 101 % of control and the T/C (dose: 400.0 mg/kg/injection, schedule: Q04DX003 (ip), vehicle: saline) was 90 % of control.

In the case of CC(C(=O)O)=C(c1ccccc1)c1ccccc1, the T/C (dose: 100.0 mg/kg/injection, schedule: Q01DX001 (ip), vehicle: saline with Tween-80) is reported as 100 % of control, the T/C (dose: 200.0 mg/kg/injection, schedule: Q01DX001 (ip), vehicle: saline with Tween-80) is reported as 100 % of control and the T/C (dose: 400.0 mg/kg/injection, schedule: Q01DX001 (ip), vehicle: saline with Tween-80) is reported as 100 % of control.

Nc1ccccc1.[C-]#[O+].[C-]#[O+].[C-]#[O+].[C-]#[O+].[C-]#[O+].[Cr] was tested, and the T/C (dose: 2.5 mg/kg/injection, schedule: Q01DX009 (ip), vehicle: saline) was 91 % of control and the T/C (dose: 5.0 mg/kg/injection, schedule: Q01DX009 (ip), vehicle: saline) was 101 % of control.

CCCCCC(=O)c1ccc(OCCCN2CCN(C(=O)OCC)CC2)cc1 was tested, and the T/C [9] was 105 % of control and the T/C [10] was 104 % of control.

O=C(NS(=O)(=O)c1ccc(Cl)cc1)c1cccc2ccccc12 was tested, and the T/C (dose: 25.0 mg/kg/injection, schedule: Q01DX009 (ip), vehicle: Klucel (hydroxypropylcellulose) (HPC)) was 95 % of control, the T/C (dose: 50.0 mg/kg/injection, schedule: Q01DX009 (ip), vehicle: Klucel (hydroxypropylcellulose) (HPC)) was 90 % of control and the T/C (dose: 100.0 mg/kg/injection, schedule: Q01DX009 (ip), vehicle: Klucel (hydroxypropylcellulose) (HPC)) was 109 % of control.

CCOC(=O)CCC(C)(c1ccc(O)cc1)c1ccc(O)cc1 was tested, and the T/C (dose: 50.0 mg/kg/injection, schedule: Q01DX009 (ip), vehicle: gum acacia) was 95 % of control, the T/C (dose: 100.0 mg/kg/injection, schedule: Q01DX009 (ip), vehicle: gum acacia) was 108 % of control and the T/C (dose: 100.0 mg/kg/injection, schedule: Q04DX003 (ip), vehicle: gum acacia) was 104 % of control. For the same compound, the T/C (dose: 200.0 mg/kg/injection, schedule: Q01DX009 (ip), vehicle: gum acacia) was 100 % of control, the T/C (dose: 200.0 mg/kg/injection, schedule: Q04DX003 (ip), vehicle: gum acacia) was 104 % of control and the T/C (dose: 400.0 mg/kg/injection, schedule: Q04DX003 (ip), vehicle: gum acacia) was 104 % of control.

NC(=S)N1N=C(c2cccc([N+](=O)[O-])c2)CCC1=O was tested, and the T/C [1] was 100 % of control and the T/C [3] was 100 % of control.

With CC1CNCC(C)N1C(=O)c1ccccc1 (stereo not drawn) the T/C (dose: 0.1 mg/kg/injection, schedule: Q01DX009 (ip), vehicle: water) was 96 % of control, the T/C (dose: 0.2 mg/kg/injection, schedule: Q01DX009 (ip), vehicle: water) was 105 % of control and the T/C (dose: 0.4 mg/kg/injection, schedule: Q01DX009 (ip), vehicle: water) was 115 % of control. For the same compound, the T/C (dose: 0.78 mg/kg/injection, schedule: Q04DX003 (ip), vehicle: water) was 97 % of control, the T/C (dose: 1.56 mg/kg/injection, schedule: Q04DX003 (ip), vehicle: water) was 104 % of control and the T/C (dose: 3.12 mg/kg/injection, schedule: Q04DX003 (ip), vehicle: water) was 104 % of control. The T/C (dose: 6.25 mg/kg/injection, schedule: Q04DX003 (ip), vehicle: water) was 88 % of control.

C/C(=N\NC(=O)CC(=O)N/N=C(\C)c1ccccc1)c1ccccc1 was tested, and the T/C (dose: 75.0 mg/kg/injection, schedule: Q01DX009 (ip), vehicle: saline with Tween-80) was 91 % of control, the T/C (dose: 150.0 mg/kg/injection, schedule: Q01DX009 (ip), vehicle: saline with Tween-80) was 99 % of control and the T/C (dose: 300.0 mg/kg/injection, schedule: Q01DX009 (ip), vehicle: saline with Tween-80) was 90 % of control.

CC(C)c1cc(C(C)C)nc(NNc2nc(C(C)C)cc(C(C)C)n2)n1 was tested, and the T/C [9] was 90 % of control, the T/C [10] was 90 % of control and the T/C [11] was 100 % of control.

For COc1cc2c(c(OC)c1OC)-c1ccc(OC)c(=O)cc1[C@@H](NC(=O)c1ccccc1)CC2, the T/C (dose: 0.06 mg/kg/injection, schedule: Q01DX009 (ip), vehicle: saline sonified) was 112 % of control, the T/C (dose: 0.12 mg/kg/injection, schedule: Q01DX009 (ip), vehicle: saline sonified) was 116 % of control and the T/C (dose: 0.5 mg/kg/injection, schedule: Q01DX009 (ip), vehicle: saline sonified) was 163 % of control. The T/C (dose: 1.0 mg/kg/injection, schedule: Q01DX009 (ip), vehicle: saline sonified) was 190 % of control, the T/C (dose: 2.0 mg/kg/injection, schedule: Q01DX009 (ip), vehicle: saline sonified) was 254 % of control and 109 % of control and the T/C (dose: 3.3 mg/kg/injection, schedule: Q04DX003 (ip), vehicle: saline) was 159 % of control. The T/C (dose: 4.0 mg/kg/injection, schedule: Q01DX009 (ip), vehicle: saline sonified) was 272 % of control, the T/C (dose: 5.0 mg/kg/injection, schedule: Q04DX003 (ip), vehicle: saline) was 200 % of control and the T/C (dose: 6.0 mg/kg/injection, schedule: Q01DX009 (ip), vehicle: saline sonified) was 162 % of control. The T/C (dose: 7.5 mg/kg/injection, schedule: Q04DX003 (ip), vehicle: saline) was 204 % of control.

With Cc1ccc(Sc2ccccc2C(C)(C)O)cc1 the T/C [8] was 101 % of control, the T/C [9] was 101 % of control and the T/C [10] was 95 % of control.

With Nc1nc(N=Nc2ccc(O)cc2)cc(=O)[nH]1 the T/C (dose: 50.0 mg/kg/injection, schedule: Q01DX009 (ip), vehicle: other) was 106 % of control, the T/C (dose: 100.0 mg/kg/injection, schedule: Q01DX009 (ip), vehicle: other) was 110 % of control and the T/C (dose: 200.0 mg/kg/injection, schedule: Q01DX009 (ip), vehicle: other) was 103 % of control. For the same compound, the T/C (dose: 400.0 mg/kg/injection, schedule: Q01DX009 (ip), vehicle: other) was 112 % of control.
